Laboratory results from patent US8053603B2, “Tetralone-based monoamine reuptake inhibitors” (Sunovion Pharmaceuticals Inc., priority 2006, dated 2011).
Where two headings read alike, the source gives them in different places.

Experiments:
Type in all cases: cell-based
[1] = biological target: T1, recombinant human norepinephrine transporter (Homo sapiens, UniProt P23975); assay: Norepinephrine functional uptake assay for human reuptake transporter; settings: [3H]norepinephrine uptake, HEK293 or MDCK cells expressing human norepinephrine transporter
T1 construct: expressed in transfected cells; host or cells: HEK293 or MDCK
Experimental: Norepinephrine Functional Uptake Assay for Human Reuptake Transporter
The cells were plated before the assay. Test compound and/or vehicle was preincubated with cells in modified HEPES buffer pH 7.1 or pH 7.4 for 20 minutes at 18 to 25° C. . […] After the cells were washed to remove [^3H]norepinephrine not internalized, the cells were lysed, and the amount of tritium in the cell lysate was measured using a liquid scintillation counter to determine [^3H]norepinephrine uptake. Non-specific binding of tritium was measured in a control reaction containing 10 μM imipramine (or 10 μM nisoxetine), and was subtracted from the counts for assays to correct for non-specific binding of tritium. Reduction of [^3H]norepinephrine uptake by 50 percent or more (≧50%) relative to an uninhibited control reaction indicates significant inhibitory activity.

[2] = biological target: T2, recombinant human dopamine transporter (Homo sapiens, UniProt Q01959); assay: Dopamine functional uptake assay for human reuptake transporter
T2 construct: expressed in transfected cells; host or cells: CHO-K1 or HEK293
Experimental: Dopamine Functional Uptake Assay for Human Reuptake Transporter
Either CHO-K1 or HEK293 cells expressing human recombinant dopamine transporter were plated before the assay. Test compound and/or vehicle was preincubated with cells in modified HEPES buffer pH 7.1 or pH 7.4 for 20 minutes at 18 to 25° C. and 50 nM [^3H]dopamine was then added for an additional timed incubation period (10 to 30 minutes). After washing the cells to remove [^3H]dopamine not internalized, the cells were lysed, and the amount of tritium in the lysate was measured using a liquid scintillation counter to determine [^3H]dopamine uptake. Non-specific binding of tritium was measured in a control reaction containing 10 μM nomifensine, and was subtracted from the counts for assays to correct for non-specific binding of tritium. Reduction of [^3H]dopamine uptake by 50 percent or more (≧50%) relative to an uninhibited control reaction indicates significant inhibitory activity.

[3] = biological target: T3, recombinant human serotonin transporter (Homo sapiens, UniProt P31645); assay: Serotonin functional uptake assay for human reuptake transporter; settings: [3H]serotonin uptake, HEK-293 cells expressing human serotonin transporter; read-out: Human IC50 (nM) SERT
T3 construct: expressed in transfected cells; host or cells: HEK-293
Experimental: Serotonin Functional Uptake Assay for Human Reuptake Transporter
HEK-293 cells expressing human serotonin transporter were plated before the assay. […] Cells with internalized [^3H]serotonin were washed and the amount of tritium taken into cells is counted using a liquid scintillation counter to determine [^3H]serotonin uptake.

[4] = [3H]dopamine uptake, CHO-K1 or HEK293 cells expressing human dopamine transporter, read-out: Human IC50 (nM) DAT

T3 sequence (P31645 whole entry): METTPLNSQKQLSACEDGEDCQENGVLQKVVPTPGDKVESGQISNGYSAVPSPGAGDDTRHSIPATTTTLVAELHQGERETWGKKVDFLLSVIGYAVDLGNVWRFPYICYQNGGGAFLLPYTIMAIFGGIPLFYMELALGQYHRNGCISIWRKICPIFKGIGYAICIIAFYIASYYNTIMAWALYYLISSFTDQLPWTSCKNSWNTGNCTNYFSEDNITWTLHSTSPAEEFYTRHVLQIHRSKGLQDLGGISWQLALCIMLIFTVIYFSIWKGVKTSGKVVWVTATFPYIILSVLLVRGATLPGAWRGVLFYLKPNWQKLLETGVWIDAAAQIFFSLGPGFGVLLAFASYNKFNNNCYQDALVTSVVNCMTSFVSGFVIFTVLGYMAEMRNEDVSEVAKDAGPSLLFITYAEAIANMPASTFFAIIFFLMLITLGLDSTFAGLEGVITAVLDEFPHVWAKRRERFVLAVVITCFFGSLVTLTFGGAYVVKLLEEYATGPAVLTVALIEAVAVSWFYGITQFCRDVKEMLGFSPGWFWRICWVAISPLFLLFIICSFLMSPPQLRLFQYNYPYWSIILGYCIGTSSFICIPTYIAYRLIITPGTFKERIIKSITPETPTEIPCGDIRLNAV
T1 sequence (P23975 whole entry): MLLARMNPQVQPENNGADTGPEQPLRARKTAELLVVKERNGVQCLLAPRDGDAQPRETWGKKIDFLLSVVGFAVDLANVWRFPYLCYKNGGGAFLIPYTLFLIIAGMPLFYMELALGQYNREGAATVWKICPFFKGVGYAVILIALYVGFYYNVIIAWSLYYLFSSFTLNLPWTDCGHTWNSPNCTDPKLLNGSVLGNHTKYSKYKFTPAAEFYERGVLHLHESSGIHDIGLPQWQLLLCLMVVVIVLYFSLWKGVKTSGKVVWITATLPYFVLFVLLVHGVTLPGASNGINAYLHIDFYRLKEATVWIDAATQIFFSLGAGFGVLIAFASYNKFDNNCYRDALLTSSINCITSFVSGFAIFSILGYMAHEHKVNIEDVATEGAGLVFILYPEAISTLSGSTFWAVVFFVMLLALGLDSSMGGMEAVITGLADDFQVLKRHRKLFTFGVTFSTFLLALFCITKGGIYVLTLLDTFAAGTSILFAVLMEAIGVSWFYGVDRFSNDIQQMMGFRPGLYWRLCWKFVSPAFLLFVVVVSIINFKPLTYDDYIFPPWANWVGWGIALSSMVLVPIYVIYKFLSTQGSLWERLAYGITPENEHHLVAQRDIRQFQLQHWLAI
T2 sequence (Q01959 whole entry): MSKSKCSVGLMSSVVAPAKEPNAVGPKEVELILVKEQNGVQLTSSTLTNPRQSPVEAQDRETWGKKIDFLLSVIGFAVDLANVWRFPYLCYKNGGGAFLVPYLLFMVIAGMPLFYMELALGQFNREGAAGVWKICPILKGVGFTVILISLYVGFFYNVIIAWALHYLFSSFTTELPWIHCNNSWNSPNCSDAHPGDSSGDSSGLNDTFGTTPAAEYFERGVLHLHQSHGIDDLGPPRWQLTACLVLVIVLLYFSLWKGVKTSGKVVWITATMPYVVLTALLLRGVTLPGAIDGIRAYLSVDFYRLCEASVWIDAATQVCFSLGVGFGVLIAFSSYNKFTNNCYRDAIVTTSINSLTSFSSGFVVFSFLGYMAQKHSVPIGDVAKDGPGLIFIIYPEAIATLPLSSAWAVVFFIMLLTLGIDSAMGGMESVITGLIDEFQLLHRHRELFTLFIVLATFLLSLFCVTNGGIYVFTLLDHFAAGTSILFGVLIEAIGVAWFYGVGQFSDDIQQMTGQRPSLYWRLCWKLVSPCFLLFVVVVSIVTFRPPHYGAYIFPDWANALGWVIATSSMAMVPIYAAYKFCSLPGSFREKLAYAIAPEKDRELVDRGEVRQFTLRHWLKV

N[C@H]1Cc2ccccc2[C@H](c2ccc(Cl)c(Cl)c2)C1 (single isomer, unassigned) [Compound 6b, [4-(3,4-dichlorophenyl)-1,2,3,4-tetrahydro-naphthalen-2-yl]-amine]
IC50 ([1]; Human IC50 (nM) NET): 731 nM | IC50 ([2]; Human IC50 (nM) DAT): 408 nM

N[C@H]1Cc2ccccc2[C@H](c2ccc(Cl)c(Cl)c2)C1 (single isomer, unassigned) [Compound 6c, [4-(3,4-dichlorophenyl)-1,2,3,4-tetrahydro-naphthalen-2-yl]-amine]
IC50 ([1]; Human IC50 (nM) NET): 855 nM | IC50 ([2]; Human IC50 (nM) DAT): 894 nM

N[C@H]1Cc2ccccc2[C@H](c2ccc(Cl)c(Cl)c2)C1 (single isomer, unassigned) [Compound 6d, [4-(3,4-dichlorophenyl)-1,2,3,4-tetrahydro-naphthalen-2-yl]-amine]
IC50 ([1]; Human IC50 (nM) NET): 174 nM | IC50 ([2]; Human IC50 (nM) DAT): 175 nM

CN[C@H]1Cc2ccccc2[C@H](c2ccc(Cl)c(Cl)c2)C1 (single isomer, unassigned) [Compound 7b, 4-(3,4-dichlorophenyl)-N-methyl-1,2,3,4-tetrahydronaphthalen-2-amine]
IC50 [2, 4]: 62 nM

CN[C@H]1Cc2ccccc2[C@H](c2ccc(Cl)c(Cl)c2)C1 (single isomer, unassigned) [Compound 7c, 4-(3,4-dichlorophenyl)-N-methyl-1,2,3,4-tetrahydronaphthalen-2-amine]
IC50 [2, 4]: 281 nM

CN[C@H]1Cc2ccccc2[C@H](c2ccc(Cl)c(Cl)c2)C1 (single isomer, unassigned) [Compound 7d, 4-(3,4-dichlorophenyl)-N-methyl-1,2,3,4-tetrahydronaphthalen-2-amine]
IC50 [2, 4]: 72 nM

CN(C)[C@H]1Cc2ccccc2[C@H](c2ccc(Cl)c(Cl)c2)C1 (single isomer, unassigned) [Compound 8b, [4-(3,4-dichlorophenyl)-1,2,3,4-tetrahydro-naphthalen-2-yl]-dimethylamine]
IC50 ([1]; Human IC50 (nM) NET): 174 nM | IC50 [2, 4]: 176 nM

CN(C)[C@H]1Cc2ccccc2[C@H](c2ccc(Cl)c(Cl)c2)C1 (single isomer, unassigned) [Compound 8c, [4-(3,4-dichlorophenyl)-1,2,3,4-tetrahydro-naphthalen-2-yl]-dimethylamine]
IC50 ([1]; Human IC50 (nM) NET): 164 nM | IC50 [2, 4]: 273 nM

CN(C)[C@H]1Cc2ccccc2[C@H](c2ccc(Cl)c(Cl)c2)C1 (single isomer, unassigned) [Compound 8d, [4-(3,4-dichlorophenyl)-1,2,3,4-tetrahydro-naphthalen-2-yl]-dimethylamine]
IC50 ([1]; Human IC50 (nM) NET): 98 nM | IC50 [2, 4]: 319 nM

CNC[C@H]1Cc2ccccc2[C@H](c2ccc(Cl)c(Cl)c2)C1 (single isomer, unassigned) [Compound 15b, [4-(3,4-dichlorophenyl)-1,2,3,4-tetrahydro-naphthalen-2-ylmethyl]-methylamine]
IC50 ([1]; Human IC50 (nM) NET): 126 nM | IC50 [2, 4]: 103 nM

CNC[C@H]1Cc2ccccc2[C@H](c2ccc(Cl)c(Cl)c2)C1 (single isomer, unassigned) [Compound 15c, [4-(3,4-dichlorophenyl)-1,2,3,4-tetrahydro-naphthalen-2-ylmethyl]-methylamine]
IC50 ([1]; Human IC50 (nM) NET): 210 nM | IC50 [2, 4]: 111 nM

CNC[C@H]1Cc2ccccc2[C@H](c2ccc(Cl)c(Cl)c2)C1 (single isomer, unassigned) [Compound 15d, [4-(3,4-dichlorophenyl)-1,2,3,4-tetrahydro-naphthalen-2-ylmethyl]-methylamine]
IC50 ([1]; Human IC50 (nM) NET): 372 nM | IC50 [2, 4]: 484 nM

CN(C)CC1Cc2ccccc2C(c2ccc(Cl)c(Cl)c2)C1 (single isomer, unassigned) [Compound 16a, [4-(3,4-dichlorophenyl)-1,2,3,4-tetrahydro-naphthalen-2-ylmethyl]-dimethylamine]
IC50 ([1]; Human IC50 (nM) NET): 565 nM

CN(C)CC1Cc2ccccc2C(c2ccc(Cl)c(Cl)c2)C1 (single isomer, unassigned) [Compound 16b, [4-(3,4-dichlorophenyl)-1,2,3,4-tetrahydro-naphthalen-2-ylmethyl]-dimethylamine]
IC50 ([1]; Human IC50 (nM) NET): 309 nM

CN(C)C1CC(c2ccc(Cl)c(Cl)c2)c2ccccc2C1O (single isomer, unassigned) [Compound 23a, 4-(3,4-dichlorophenyl)-2-(dimethylamino)-1,2,3,4-tetrahydronaphthalen-1-ol]
IC50 [3]: 117 nM | IC50 ([1]; read-out: Human IC50 (nM) NET): 710 nM | IC50 [2, 4]: 371 nM

CN(C)C1CC(c2ccc(Cl)c(Cl)c2)c2ccccc2C1O (single isomer, unassigned) [Compound 23b, 4-(3,4-dichlorophenyl)-2-(dimethylamino)-1,2,3,4-tetrahydronaphthalen-1-ol]
IC50 [3]: 1300 nM | IC50 ([1]; Human IC50 (nM) NET): 48 nM | IC50 [2, 4]: 67 nM

CN(C)C1CC(c2ccc(Cl)c(Cl)c2)c2ccccc2C1O (single isomer, unassigned) [Compound 23c, 4-(3,4-dichlorophenyl)-2-(dimethylamino)-1,2,3,4-tetrahydronaphthalen-1-ol]
IC50 [3]: 2360 nM | IC50 ([1]; Human IC50 (nM) NET): 36 nM | IC50 [2, 4]: 21 nM

CN(C)C1CC(c2ccc(Cl)c(Cl)c2)c2ccccc2C1O (single isomer, unassigned) [Compound 23d, 4-(3,4-dichlorophenyl)-2-(dimethylamino)-1,2,3,4-tetrahydronaphthalen-1-ol]
IC50 [3]: 48 nM | IC50 ([1]; Human IC50 (nM) NET): 65 nM | IC50 [2, 4]: 48 nM

CN[C@H]1Cc2ccc(OC)cc2[C@@H](c2ccc(Cl)c(Cl)c2)C1 (single isomer, unassigned) [Compound 32a.1, 4-(3,4-dichlorophenyl)-6-methoxy-N-methyl-1,2,3,4-tetrahydronaphthalen-2-amine]
IC50 [3]: 162 nM | IC50 ([1]; read-out: Human IC50 (nM) NET): 1210 nM | IC50 [2, 4]: 1080 nM

CN[C@H]1Cc2ccc(OC)cc2[C@@H](c2ccc(Cl)c(Cl)c2)C1 (single isomer, unassigned) [Compound 32a.2, 4-(3,4-dichlorophenyl)-6-methoxy-N-methyl-1,2,3,4-tetrahydronaphthalen-2-amine]
IC50 [3]: 130 nM | IC50 ([1]; read-out: Human IC50 (nM) NET): 467 nM | IC50 [2, 4]: 415 nM

CN[C@H]1Cc2ccc(OC)cc2[C@@H](c2ccc(Cl)c(Cl)c2)C1 (single isomer, unassigned) [Compound 32a.4, 4-(3,4-dichlorophenyl)-6-methoxy-N-methyl-1,2,3,4-tetrahydronaphthalen-2-amine]
IC50 [3]: 958 nM | IC50 ([1]; read-out: Human IC50 (nM) NET): 786 nM | IC50 [2, 4]: 1680 nM

CN[C@H]1CCc2ccccc2[C@H]1c1ccc(Cl)c(Cl)c1 (single isomer, unassigned) [Compound 36a, 1-(3,4-dichlorophenyl)-N-methyl-1,2,3,4-tetrahydronaphthalen-2-amine]
IC50 ([1]; read-out: Human IC50 (nM) NET): 3450 nM | IC50 [2, 4]: 511 nM

CN[C@H]1CCc2ccccc2[C@H]1c1ccc(Cl)c(Cl)c1 (single isomer, unassigned) [Compound 36b, 1-(3,4-dichlorophenyl)-N-methyl-1,2,3,4-tetrahydronaphthalen-2-amine]
IC50 ([1]; read-out: Human IC50 (nM) NET): 7090 nM

CN[C@H]1CCc2ccccc2[C@H]1c1ccc(Cl)c(Cl)c1 (single isomer, unassigned) [Compound 36c, 1-(3,4-dichlorophenyl)-N-methyl-1,2,3,4-tetrahydronaphthalen-2-amine]
IC50 ([1]; read-out: Human IC50 (nM) NET): 745 nM | IC50 [2, 4]: 88 nM

CN[C@H]1CCc2ccccc2[C@H]1c1ccc(Cl)c(Cl)c1 (stereo in doubt) [Compound 36d, 1-(3,4-dichlorophenyl)-N-methyl-1,2,3,4-tetrahydronaphthalen-2-amine]
IC50 ([1]; read-out: Human IC50 (nM) NET): 1620 nM | IC50 [2, 4]: 204 nM

N[C@H]1Cc2ccccc2[C@H](c2ccc(Cl)c(Cl)c2)C1 [Compound 6a, [4-(3,4-dichlorophenyl)-1,2,3,4-tetrahydro-naphthalen-2-yl]-amine]
IC50 ([1]; read-out: Human IC50 (nM) NET): 124 nM | IC50 ([2]; read-out: Human IC50 (nM) DAT): 350 nM

CN[C@H]1Cc2ccccc2[C@H](c2ccc(Cl)c(Cl)c2)C1 [Compound 7a, 4-(3,4-dichlorophenyl)-N-methyl-1,2,3,4-tetrahydronaphthalen-2-amine]
IC50 [2, 4]: 114 nM

CN(C)[C@H]1Cc2ccccc2[C@H](c2ccc(Cl)c(Cl)c2)C1 [Compound 8a, [4-(3,4-dichlorophenyl)-1,2,3,4-tetrahydro-naphthalen-2-yl]-dimethylamine]
IC50 ([1]; read-out: Human IC50 (nM) NET): 167 nM | IC50 [2, 4]: 454 nM

CNC[C@H]1Cc2ccccc2[C@H](c2ccc(Cl)c(Cl)c2)C1 [Compound 15a, [4-(3,4-dichlorophenyl)-1,2,3,4-tetrahydro-naphthalen-2-ylmethyl]-methylamine]
IC50 ([1]; read-out: Human IC50 (nM) NET): 72 nM | IC50 [2, 4]: 125 nM
